Assay results taken from PubChem BioAssay AID1963851 (Molecular Pharmacology Branch, DTP, NCI, 2024).

System: 188146-221-R-J1-PDC complex spheroid viability
Experiment: Anticancer human tumor 188146-221-R-J1-PDC patient-derived colon adenocarcinoma cell line growth inhibition [POLQ]
Settings: for IC50: curve of first compound; for viability, T/C: stronger effect = lower value
Outline: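 Three-cell-type spheroids modelling solid tumor plus stroma served as the readout system; POL inhibitors were tested individually and in combination, concentration ranges set by clinical Cmax where known.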

[1] = second compound 0.0316 µM, first compound 0.0316 µM
[2] = second compound 0.0316 µM, first compound 0.1 µM
[3] = second compound 0.0316 µM, first compound 0.316 µM
[4] = second compound 0.0316 µM, first compound 1 µM
[5] = second compound 0.0316 µM, first compound 3.16 µM
[6] = second compound 0.0316 µM, first compound 10 µM
[7] = second compound 0.1 µM, first compound 0.0316 µM
[8] = second compound 0.1 µM, first compound 0.1 µM
[9] = second compound 0.1 µM, first compound 0.316 µM
[10] = second compound 0.1 µM, first compound 1 µM
[11] = second compound 0.1 µM, first compound 3.16 µM
[12] = second compound 0.1 µM, first compound 10 µM
[13] = second compound 0.316 µM, first compound 0.0316 µM
[14] = second compound 0.316 µM, first compound 0.1 µM
[15] = second compound 0.316 µM, first compound 0.316 µM
[16] = second compound 0.316 µM, first compound 1 µM
[17] = second compound 0.316 µM, first compound 3.16 µM
[18] = second compound 0.316 µM, first compound 10 µM
[19] = second compound 1 µM, first compound 0.0316 µM
[20] = second compound 1 µM, first compound 0.1 µM
[21] = second compound 1 µM, first compound 0.316 µM
[22] = second compound 1 µM, first compound 1 µM
[23] = second compound 1 µM, first compound 3.16 µM
[24] = second compound 1 µM, first compound 10 µM
[25] = second compound 3.16 µM, first compound 0.0316 µM
[26] = second compound 3.16 µM, first compound 0.1 µM
[27] = second compound 3.16 µM, first compound 0.316 µM
[28] = second compound 3.16 µM, first compound 1 µM
[29] = second compound 3.16 µM, first compound 3.16 µM
[30] = second compound 3.16 µM, first compound 10 µM
[31] = second compound 10 µM, first compound 0.0316 µM
[32] = second compound 10 µM, first compound 0.1 µM
[33] = second compound 10 µM, first compound 0.316 µM
[34] = second compound 10 µM, first compound 1 µM
[35] = second compound 10 µM, first compound 3.16 µM
[36] = second compound 10 µM, first compound 10 µM
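Note: spheroids exposed to compounds for seven days.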
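Throughout, for viability, T/C: 100% = DMSO vehicle control viability.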

In the case of `CCc1cc2c(N3CCc4c(cc(Cn5ccnc5)cc4-c4cn(C)nc4C(F)(F)F)C3=O)cc(C)nc2c(OC)n1` + Nc1ccc(C#CCN(C(=O)Cc2ncc(C(F)(F)F)cc2C(F)(F)F)c2ccc(F)cc2)nn1, the IC50 (second compound 0.0316 µM) is reported as 8.54 µM, the IC50 (second compound 0.1 µM) is reported as 7.95 µM and the IC50 (second compound 0.316 µM) is reported as 6.94 µM. The IC50 (second compound 1 µM) was > 10 µM, the IC50 (second compound 3.16 µM) was 7.01 µM and the IC50 (second compound 10 µM) was 8.08 µM. The viability, T/C [1] was 89.1%, the viability, T/C [2] was 101% and the viability, T/C [3] was 74.4%. For the same compound, the viability, T/C [4] was 85.7%, the viability, T/C [5] was 71.2% and the viability, T/C [6] was 46.3%. The viability, T/C [7] was 119%, the viability, T/C [8] was 101% and the viability, T/C [9] was 103%. For the same compound, the viability, T/C [10] was 95%, the viability, T/C [11] was 66% and the viability, T/C [12] was 46%. For the same compound, the viability, T/C [13] was 120%, the viability, T/C [14] was 101% and the viability, T/C [15] was 94%. The viability, T/C [16] was 103%, the viability, T/C [17] was 66.1% and the viability, T/C [18] was 40.8%. It also gave a viability, T/C [19] of 107%, a viability, T/C [20] of 96.3% and a viability, T/C [21] of 104%. It also gave a viability, T/C [22] of 95.2%, a viability, T/C [23] of 85.5% and a viability, T/C [24] of 50.4%. It also gave a viability, T/C [25] of 111%, a viability, T/C [26] of 115% and a viability, T/C [27] of 109%. The viability, T/C [28] was 85.8%, the viability, T/C [29] was 68.8% and the viability, T/C [30] was 42.1%. For the same compound, the viability, T/C [31] was 93.7%, the viability, T/C [32] was 102% and the viability, T/C [33] was 99%. For the same compound, the viability, T/C [34] was 84.8%, the viability, T/C [35] was 69.5% and the viability, T/C [36] was 45.6%.
For `O=C(Nc1ccc(O)c(NS(=O)(=O)c2ccc(F)cc2)c1)c1ccc(-c2ccccc2)cc1` + Nc1ccc(C#CCN(C(=O)Cc2ncc(C(F)(F)F)cc2C(F)(F)F)c2ccc(F)cc2)nn1, the IC50 (second compound 0.0316 µM) was > 10 µM, the IC50 (second compound 0.1 µM) was > 10 µM and the IC50 (second compound 0.316 µM) was > 10 µM. The IC50 (second compound 1 µM) was > 10 µM, the IC50 (second compound 3.16 µM) was > 10 µM and the IC50 (second compound 10 µM) was > 10 µM. It also gave a viability, T/C [1] of 104%, a viability, T/C [2] of 100% and a viability, T/C [3] of 88%. It also gave a viability, T/C [4] of 109%, a viability, T/C [5] of 92.7% and a viability, T/C [6] of 72%. The viability, T/C [7] was 105%, the viability, T/C [8] was 119% and the viability, T/C [9] was 109%. For the same compound, the viability, T/C [10] was 104%, the viability, T/C [11] was 88.9% and the viability, T/C [12] was 63.6%. It also gave a viability, T/C [13] of 119%, a viability, T/C [14] of 100% and a viability, T/C [15] of 93.5%. The viability, T/C [16] was 92%, the viability, T/C [17] was 93.6% and the viability, T/C [18] was 60.1%. It also gave a viability, T/C [19] of 124%, a viability, T/C [20] of 112% and a viability, T/C [21] of 108%. For the same compound, the viability, T/C [22] was 79.7%, the viability, T/C [23] was 97.8% and the viability, T/C [24] was 73.2%. For the same compound, the viability, T/C [25] was 111%, the viability, T/C [26] was 110% and the viability, T/C [27] was 118%. For the same compound, the viability, T/C [28] was 99.9%, the viability, T/C [29] was 107% and the viability, T/C [30] was 60.1%. The viability, T/C [31] was 111%, the viability, T/C [32] was 118% and the viability, T/C [33] was 110%. For the same compound, the viability, T/C [34] was 99.1%, the viability, T/C [35] was 110% and the viability, T/C [36] was 68.6%.
With `C=CCn1c(=O)c2cnc(Nc3ccc(N4CCN(C)CC4)cc3)nc2n1-c1cccc(C(C)(C)O)n1` + Nc1ccc(C#CCN(C(=O)Cc2ncc(C(F)(F)F)cc2C(F)(F)F)c2ccc(F)cc2)nn1 the IC50 (second compound 0.0316 µM) was > 1 µM, the IC50 (second compound 0.1 µM) was > 1 µM and the IC50 (second compound 0.316 µM) was > 1 µM. The IC50 (second compound 1 µM) was > 1 µM, the IC50 (second compound 3.16 µM) was > 1 µM and the IC50 (second compound 10 µM) was 0.788 µM. It also gave a viability, T/C (second compound 0.0316 µM, first compound 0.00316 µM) of 112%, a viability, T/C (second compound 0.0316 µM, first compound 0.01 µM) of 100% and a viability, T/C [1] of 98.6%. For the same compound, the viability, T/C [2] was 100%, the viability, T/C [3] was 102% and the viability, T/C [4] was 55.6%. It also gave a viability, T/C (second compound 0.1 µM, first compound 0.00316 µM) of 111%, a viability, T/C (second compound 0.1 µM, first compound 0.01 µM) of 97% and a viability, T/C [7] of 119%. For the same compound, the viability, T/C [8] was 117%, the viability, T/C [9] was 109% and the viability, T/C [10] was 57.1%. It also gave a viability, T/C (second compound 0.316 µM, first compound 0.00316 µM) of 115%, a viability, T/C (second compound 0.316 µM, first compound 0.01 µM) of 104% and a viability, T/C [13] of 115%. The viability, T/C [14] was 111%, the viability, T/C [15] was 84.6% and the viability, T/C [16] was 50.6%. It also gave a viability, T/C (second compound 1 µM, first compound 0.00316 µM) of 119%, a viability, T/C (second compound 1 µM, first compound 0.01 µM) of 106% and a viability, T/C [19] of 100%. The viability, T/C [20] was 122%, the viability, T/C [21] was 101% and the viability, T/C [22] was 55.9%. For the same compound, the viability, T/C (second compound 3.16 µM, first compound 0.00316 µM) was 107%, the viability, T/C (second compound 3.16 µM, first compound 0.01 µM) was 110% and the viability, T/C [25] was 114%. The viability, T/C [26] was 110%, the viability, T/C [27] was 108% and the viability, T/C [28] was 52.1%. The viability, T/C (second compound 10 µM, first compound 0.00316 µM) was 114%, the viability, T/C (second compound 10 µM, first compound 0.01 µM) was 114% and the viability, T/C [31] was 104%. The viability, T/C [32] was 110%, the viability, T/C [33] was 98.4% and the viability, T/C [34] was 37.2%.
With `O=c1[nH]cc(F)c(=O)[nH]1` + Cc1cccc(N(C)C(=O)C2C(O)CCN2c2nc(C)cc(C(F)(F)F)c2C#N)c1 the IC50 (second compound 0.0316 µM) was 2.44 µM, the IC50 (second compound 0.1 µM) was 1.38 µM and the IC50 (second compound 0.316 µM) was 1.82 µM. It also gave an IC50 (second compound 1 µM) of 1.68 µM, an IC50 (second compound 3.16 µM) of 1.34 µM and an IC50 (second compound 10 µM) of 1.69 µM. The viability, T/C [1] was 107%, the viability, T/C [2] was 91.7% and the viability, T/C [3] was 73.5%. The viability, T/C [4] was 57.7%, the viability, T/C [5] was 50.8% and the viability, T/C [6] was 34.5%. It also gave a viability, T/C [7] of 102%, a viability, T/C [8] of 96.7% and a viability, T/C [9] of 73.9%. The viability, T/C [10] was 52.6%, the viability, T/C [11] was 45% and the viability, T/C [12] was 37%. The viability, T/C [13] was 93%, the viability, T/C [14] was 87% and the viability, T/C [15] was 80%. It also gave a viability, T/C [16] of 57%, a viability, T/C [17] of 43.5% and a viability, T/C [18] of 34.9%. It also gave a viability, T/C [19] of 79.8%, a viability, T/C [20] of 84.6% and a viability, T/C [21] of 74.3%. The viability, T/C [22] was 57.1%, the viability, T/C [23] was 41.7% and the viability, T/C [24] was 37.5%. It also gave a viability, T/C [25] of 90.2%, a viability, T/C [26] of 82.5% and a viability, T/C [27] of 72.9%. It also gave a viability, T/C [28] of 50.2%, a viability, T/C [29] of 44.7% and a viability, T/C [30] of 36.2%. It also gave a viability, T/C [31] of 91.1%, a viability, T/C [32] of 85.5% and a viability, T/C [33] of 76.6%. It also gave a viability, T/C [34] of 51.7%, a viability, T/C [35] of 47.9% and a viability, T/C [36] of 34.4%.
